# Results taken from ChEMBL document CHEMBL1158771, “Glaciapyrroles A, B, and C, pyrrolosesquiterpenes from a Streptomyces sp. isolated from an Alaskan marine sediment” (J Nat Prod, 2005).
# Assays:
# [1] = tested on: B16-F10; experiment: Cytotoxicity against mouse B16F10 cells assessed as reduction of resazurin after 48 hrs by fluorimetry; type: functional, cell-based; conditions: B16-F10, 48 h
# [2] = tested on: HT-29; experiment: Cytotoxicity against human HT-29 cells assessed as reduction of resazurin after 48 hrs by fluorimetry; type: functional, cell-based; conditions: HT-29, 48 h
structure (smiles),measurement,setting,value
CC(=C/C(=O)c1ccc[nH]1)/C=C/[C@H](O)[C@@]1(C)CC[C@H](C(C)(C)O)O1 [GLYCIAPYRROLE A],IC50,[1],180 µM
same,IC50,[2],180 µM
